Test results as given in ChEMBL document CHEMBL1201862, “PubChem BioAssay data set” (2004).
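Results reflect a 48-hour exposure of cells in 96-well plates to compound at five concentrations. GI50 marks 50% less growth.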 The source made the active and inactive calls. No stated cut-off is given here; in the data, active = GI50 up to about 1.1 µM and inactive = higher.

Experiments:
Test in all cases: NCI anticancer screen, dose series, 48 h
[1] = test system: 786-0
[2] = test system: A549
[3] = test system: ACHN
[4] = test system: CCRF-CEM
[5] = test system: COLO 205
[6] = test system: DLD-1
[7] = test system: DMS-114
[8] = test system: DMS-273
[9] = test system: EKVX
[10] = test system: HCC 2998
[11] = test system: HCT-116
[12] = test system: HCT-15
[13] = test system: HL-60
[14] = test system: HOP-62
[15] = test system: HOP-92
[16] = test system: HT-29
[17] = test system: IGROV-1
[18] = test system: K562
[19] = test system: KM-20L2
[20] = test system: KM12
[21] = test system: LOX IMVI
[22] = test system: LXFL 529
[23] = test system: M14
[24] = test system: MOLT-4
[25] = test system: Malme-3M
[26] = test system: NCI-H23
[27] = test system: NCI-H460
[28] = test system: NCI-H522
[29] = test system: OVCAR-3
[30] = test system: OVCAR-4
[31] = test system: OVCAR-5
[32] = test system: OVCAR-8
[33] = test system: RPMI-8226
[34] = test system: RXF 393
[35] = test system: RXF 631
[36] = test system: SF-268
[37] = test system: SF-295
[38] = test system: SF-539
[39] = test system: SK-MEL-28
[40] = test system: SK-MEL-2
[41] = test system: SK-MEL-5
[42] = test system: SN12C
[43] = test system: SNB-19
[44] = test system: SNB-78
[45] = test system: SW-620
[46] = test system: TK-10
[47] = test system: U-251
[48] = test system: UACC-257
[49] = test system: UACC-62
[50] = test system: UO-31
[51] = test system: XF498
[52] = test system: A498
[53] = test system: CAKI-1
[54] = test system: M19-MEL
[55] = test system: SK-OV-3
[56] = test system: SNB-75
[57] = test system: HOP-18
[58] = test system: NCI-H226
[59] = test system: SR

N#Cc1cccc(N2C(=O)c3c(c(-c4ccccc4)c(-c4ccc(Sc5ccc(-c6c(-c7ccccc7)c7c(c(-c8ccccc8)c6-c6ccccc6)C(=O)N(c6cccc(C#N)c6)C7=O)cc5)cc4)c(-c4ccccc4)c3-c3ccccc3)C2=O)c1
GI50 [1]: > 100 µM (inactive) | GI50 [2]: > 100 µM (inactive) | GI50 [3]: > 100 µM (inactive) | GI50 [4]: > 100 µM (inactive) | GI50 [5]: > 100 µM (inactive) | GI50 [6]: > 100 µM (inactive) | GI50 [7]: 89.5 µM (inactive) | GI50 [8]: > 100 µM (inactive) | GI50 [9]: 35.8 µM (inactive) | GI50 [10]: > 100 µM (inactive) | GI50 [11]: 65.2 µM (inactive) | GI50 [12]: 43.8 µM | GI50 [13]: > 100 µM (inactive) | GI50 [14]: 89.3 µM (inactive) | GI50 [15]: 3.92 µM (inactive) | GI50 [16]: > 100 µM (inactive) | GI50 [17]: 28.8 µM (inactive) | GI50 [18]: > 100 µM (inactive) | GI50 [19]: > 100 µM (inactive) | GI50 [20]: > 100 µM (inactive) | GI50 [21]: 78.2 µM (inactive) | GI50 [22]: 37.7 µM (inactive) | GI50 [23]: > 100 µM (inactive) | GI50 [24]: 49.2 µM (inactive) | GI50 [25]: > 100 µM (inactive) | GI50 [26]: > 100 µM (inactive) | GI50 [27]: > 100 µM (inactive) | GI50 [28]: > 100 µM (inactive) | GI50 [29]: > 100 µM (inactive) | GI50 [30]: > 100 µM (inactive) | GI50 [31]: > 100 µM (inactive) | GI50 [32]: 45.9 µM (inactive) | GI50 [33]: > 100 µM (inactive) | GI50 [34]: 16.9 µM (inactive) | GI50 [35]: > 100 µM (inactive) | GI50 [36]: 55.7 µM (inactive) | GI50 [37]: > 100 µM (inactive) | GI50 [38]: 65.2 µM (inactive) | GI50 [39]: > 100 µM (inactive) | GI50 [40]: > 100 µM (inactive) | GI50 [41]: 77.6 µM (inactive) | GI50 [42]: 23.9 µM (inactive) | GI50 [43]: 29.3 µM (inactive) | GI50 [44]: 35.1 µM (inactive) | GI50 [45]: > 100 µM (inactive) | GI50 [46]: 51.8 µM (inactive) | GI50 [47]: 21.2 µM (inactive) | GI50 [48]: > 100 µM (inactive) | GI50 [49]: 61.7 µM (inactive) | GI50 [50]: 91.8 µM (inactive) | GI50 [51]: 30.5 µM (inactive)

O=C1C[C@@H]2CCCC[C@@H]2C12SCCS2
GI50 [1]: > 100 µM (inactive) | GI50 [52]: > 100 µM (inactive) | GI50 [2]: > 100 µM (inactive) | GI50 [3]: > 100 µM (inactive) | GI50 [53]: > 100 µM (inactive) | GI50 [4]: > 100 µM (inactive) | GI50 [5]: > 100 µM (inactive) | GI50 [6]: > 100 µM (inactive) | GI50 [7]: 89.1 µM (inactive) | GI50 [8]: > 100 µM (inactive) | GI50 [9]: > 100 µM (inactive) | GI50 [10]: > 100 µM (inactive) | GI50 [11]: > 100 µM (inactive) | GI50 [12]: > 100 µM | GI50 [13]: 80 µM (inactive) | GI50 [14]: > 100 µM (inactive) | GI50 [17]: > 100 µM (inactive) | GI50 [18]: > 100 µM (inactive) | GI50 [20]: > 100 µM (inactive) | GI50 [21]: > 100 µM (inactive) | GI50 [22]: > 100 µM (inactive) | GI50 [54]: > 100 µM (inactive) | GI50 [24]: 69.8 µM (inactive) | GI50 [25]: > 100 µM (inactive) | GI50 [26]: 95.1 µM (inactive) | GI50 [27]: > 100 µM (inactive) | GI50 [28]: 69 µM (inactive) | GI50 [29]: > 100 µM (inactive) | GI50 [30]: > 100 µM (inactive) | GI50 [31]: > 100 µM (inactive) | GI50 [32]: > 100 µM (inactive) | GI50 [33]: > 100 µM (inactive) | GI50 [34]: 54.2 µM (inactive) | GI50 [35]: > 100 µM (inactive) | GI50 [36]: > 100 µM (inactive) | GI50 [37]: > 100 µM (inactive) | GI50 [38]: > 100 µM (inactive) | GI50 [39]: 89.3 µM (inactive) | GI50 [40]: > 100 µM (inactive) | GI50 [41]: 92.5 µM (inactive) | GI50 [55]: > 100 µM (inactive) | GI50 [42]: > 100 µM (inactive) | GI50 [43]: > 100 µM (inactive) | GI50 [56]: 61.9 µM (inactive) | GI50 [44]: > 100 µM (inactive) | GI50 [45]: > 100 µM (inactive) | GI50 [46]: > 100 µM (inactive) | GI50 [47]: > 100 µM (inactive) | GI50 [48]: > 100 µM (inactive) | GI50 [49]: 77.3 µM (inactive) | GI50 [50]: 32.1 µM (inactive) | GI50 [51]: 58.1 µM (inactive)

CS/C(C)=N/OC(=O)NCCCCNc1ccc(N=[N+]=[N-])cc1
GI50 [1]: 76.7 µM (inactive) | GI50 [52]: 47 µM (inactive) | GI50 [2]: 30.4 µM (inactive) | GI50 [3]: 26.2 µM (inactive) | GI50 [53]: 36.5 µM (inactive) | GI50 [4]: 24.2 µM (inactive) | GI50 [5]: 36.1 µM (inactive) | GI50 [6]: > 100 µM (inactive) | GI50 [7]: 13.1 µM (inactive) | GI50 [9]: 45.4 µM (inactive) | GI50 [10]: 23.9 µM (inactive) | GI50 [11]: 34.2 µM (inactive) | GI50 [12]: 36.9 µM | GI50 [57]: > 100 µM (inactive) | GI50 [14]: 48.2 µM (inactive) | GI50 [15]: 55.3 µM (inactive) | GI50 [16]: 46.2 µM (inactive) | GI50 [17]: 87.3 µM (inactive) | GI50 [18]: 30.8 µM (inactive) | GI50 [19]: 41.5 µM (inactive) | GI50 [20]: 29.5 µM (inactive) | GI50 [21]: 26.7 µM (inactive) | GI50 [22]: 24.1 µM (inactive) | GI50 [23]: 37.7 µM (inactive) | GI50 [54]: 34.6 µM (inactive) | GI50 [24]: 28.4 µM (inactive) | GI50 [25]: 32 µM (inactive) | GI50 [58]: 21 µM (inactive) | GI50 [26]: 34.9 µM (inactive) | GI50 [27]: 35 µM (inactive) | GI50 [28]: 4.76 µM (inactive) | GI50 [29]: 27.7 µM (inactive) | GI50 [30]: 42.9 µM (inactive) | GI50 [31]: > 100 µM (inactive) | GI50 [32]: 47.9 µM (inactive) | GI50 [33]: 18.4 µM (inactive) | GI50 [34]: 46 µM (inactive) | GI50 [35]: 17.4 µM (inactive) | GI50 [36]: 32.7 µM (inactive) | GI50 [37]: 28.5 µM (inactive) | GI50 [38]: 50.5 µM (inactive) | GI50 [39]: 49.7 µM (inactive) | GI50 [41]: 16.7 µM (inactive) | GI50 [55]: 37.9 µM (inactive) | GI50 [42]: 59.2 µM (inactive) | GI50 [43]: 66.4 µM (inactive) | GI50 [56]: 52.4 µM (inactive) | GI50 [44]: 82.6 µM (inactive) | GI50 [59]: 37.8 µM (inactive) | GI50 [45]: 58.5 µM (inactive) | GI50 [46]: 33.3 µM (inactive) | GI50 [47]: 30.6 µM (inactive) | GI50 [48]: 30.9 µM (inactive) | GI50 [49]: 21.8 µM (inactive) | GI50 [50]: 20.7 µM (inactive) | GI50 [51]: 13.8 µM (inactive)
